Experiment [1] addresses Epidermal growth factor receptor (Homo sapiens, UniProt P00533).
Description: Binding affinity to wild type human EGFR partial length (R669 to V1011 residues) expressed in bacterial expression system assessed as dissociation constant by DiscoverX kinomescan assay
Experiment [2] deals with T1, Epidermal growth factor receptor (Homo sapiens, UniProt P00533, L858R).
Description: Binding affinity to human partial length EGFR (R669 to V1011 residues) L858R mutant expressed in bacterial expression system assessed as dissociation constant by DiscoverX kinomescan assay
In experiment [3] the test system is A549. The experiment in a line: Anticancer activity against human A549 cells harboring KRAS mutant assessed as inhibition of cell growth.
Experiment [4] addresses T1, Epidermal growth factor receptor. This is another data set of the same source.
Description: Inhibition of EGFR L858R mutant phosphorylation (unknown origin) preincubated for 60 mins in the presence of ATP
Experiment [5] has the same target. The source holds these as a separate data set.
Description: Inhibition of EGFR L858R mutant phosphorylation (unknown origin) in the presence of ATP
Experiment [6] concerns the target T2, Aurora kinase B/Inner centromere protein (Homo sapiens, UniProt Q96GD4).
Description: Inhibition of AURKB/INCENP (unknown origin) preincubated for 60 mins in the presence of ATP at Km concentration
Experiment [7] addresses T2, Aurora kinase B/Inner centromere protein. This is another data set of the same source.
Description: Inhibition of AURKB/INCENP (unknown origin) in the presence of ATP at Km concentration
Experiment [8] deals with T3, Aurora kinase B (Homo sapiens, UniProt Q96GD4). The experiment in a line: Inhibition of AURKB (unknown origin) by nanoBRET assay. On the technique in general: Bioluminescence resonance energy transfer reports proximity on the nanometre scale.
T3 sequence (Q96GD4 whole entry): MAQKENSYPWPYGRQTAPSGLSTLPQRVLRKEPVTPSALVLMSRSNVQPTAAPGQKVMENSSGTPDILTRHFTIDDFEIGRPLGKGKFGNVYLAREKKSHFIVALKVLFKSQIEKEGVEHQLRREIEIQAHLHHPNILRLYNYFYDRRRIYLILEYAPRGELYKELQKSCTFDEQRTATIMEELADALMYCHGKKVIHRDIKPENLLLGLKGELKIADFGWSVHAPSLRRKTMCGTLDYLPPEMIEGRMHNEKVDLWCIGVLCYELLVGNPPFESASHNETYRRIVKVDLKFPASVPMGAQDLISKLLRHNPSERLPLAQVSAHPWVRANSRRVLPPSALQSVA
The target of experiment [9] is T3, Aurora kinase B.
Description: Binding affinity to human partial length AURKB (D25 to A303 residues) expressed in mammalian system assessed as dissociation constant by DiscoverX kinomescan assay
In experiment [10] the test system is NCI-H1975. Description: cells. Particulars: Homo sapiens.
Description: Anticancer activity against TKI resistant human NCI-H1975 cells harboring EGFR L858R/T790M mutant assessed as inhibition of cell growth

From ChEMBL document CHEMBL5625257, “Design, synthesis, and evaluation of dual EGFR/AURKB inhibitors as anticancer agents for non-small cell lung cancer” (Bioorg Med Chem Lett, 2024) come the findings set out here.

Structures are written as SMILES.

T1 sequence (P00533 25-1210 L858R limits assumed): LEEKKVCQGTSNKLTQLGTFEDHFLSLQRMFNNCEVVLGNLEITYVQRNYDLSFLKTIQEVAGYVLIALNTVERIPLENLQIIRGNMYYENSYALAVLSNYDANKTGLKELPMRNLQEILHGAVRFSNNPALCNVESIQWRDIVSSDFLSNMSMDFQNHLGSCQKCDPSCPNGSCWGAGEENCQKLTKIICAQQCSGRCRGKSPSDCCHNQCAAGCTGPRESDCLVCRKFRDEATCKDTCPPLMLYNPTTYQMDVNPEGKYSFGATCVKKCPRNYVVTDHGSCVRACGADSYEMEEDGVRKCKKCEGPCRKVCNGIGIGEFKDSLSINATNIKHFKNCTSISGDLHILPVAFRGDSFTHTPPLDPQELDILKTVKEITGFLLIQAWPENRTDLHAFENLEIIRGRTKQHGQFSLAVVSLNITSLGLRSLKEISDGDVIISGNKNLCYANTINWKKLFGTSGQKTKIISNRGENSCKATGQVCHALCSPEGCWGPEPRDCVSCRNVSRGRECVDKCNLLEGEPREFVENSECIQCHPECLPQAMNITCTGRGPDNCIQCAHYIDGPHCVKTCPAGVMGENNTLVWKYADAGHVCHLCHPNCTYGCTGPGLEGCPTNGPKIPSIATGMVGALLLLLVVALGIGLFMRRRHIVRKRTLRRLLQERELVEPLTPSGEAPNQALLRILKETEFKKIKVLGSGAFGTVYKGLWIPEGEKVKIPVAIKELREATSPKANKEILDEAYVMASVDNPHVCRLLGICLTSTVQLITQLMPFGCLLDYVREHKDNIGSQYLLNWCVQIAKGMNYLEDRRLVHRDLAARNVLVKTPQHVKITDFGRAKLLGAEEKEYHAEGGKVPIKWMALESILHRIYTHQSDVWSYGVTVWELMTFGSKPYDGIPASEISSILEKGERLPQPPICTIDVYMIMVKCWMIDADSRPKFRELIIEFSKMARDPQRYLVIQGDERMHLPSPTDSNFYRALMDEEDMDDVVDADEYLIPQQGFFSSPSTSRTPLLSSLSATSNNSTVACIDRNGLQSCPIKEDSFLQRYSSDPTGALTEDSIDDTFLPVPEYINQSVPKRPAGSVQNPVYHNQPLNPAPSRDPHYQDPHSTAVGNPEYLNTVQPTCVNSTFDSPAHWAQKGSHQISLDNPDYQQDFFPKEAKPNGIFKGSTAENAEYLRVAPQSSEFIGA
T2 sequence (Q96GD4 whole entry): as the sequence (Q96GD4 whole entry) above
T2 sequence (Q9NQS7 whole entry, further chain): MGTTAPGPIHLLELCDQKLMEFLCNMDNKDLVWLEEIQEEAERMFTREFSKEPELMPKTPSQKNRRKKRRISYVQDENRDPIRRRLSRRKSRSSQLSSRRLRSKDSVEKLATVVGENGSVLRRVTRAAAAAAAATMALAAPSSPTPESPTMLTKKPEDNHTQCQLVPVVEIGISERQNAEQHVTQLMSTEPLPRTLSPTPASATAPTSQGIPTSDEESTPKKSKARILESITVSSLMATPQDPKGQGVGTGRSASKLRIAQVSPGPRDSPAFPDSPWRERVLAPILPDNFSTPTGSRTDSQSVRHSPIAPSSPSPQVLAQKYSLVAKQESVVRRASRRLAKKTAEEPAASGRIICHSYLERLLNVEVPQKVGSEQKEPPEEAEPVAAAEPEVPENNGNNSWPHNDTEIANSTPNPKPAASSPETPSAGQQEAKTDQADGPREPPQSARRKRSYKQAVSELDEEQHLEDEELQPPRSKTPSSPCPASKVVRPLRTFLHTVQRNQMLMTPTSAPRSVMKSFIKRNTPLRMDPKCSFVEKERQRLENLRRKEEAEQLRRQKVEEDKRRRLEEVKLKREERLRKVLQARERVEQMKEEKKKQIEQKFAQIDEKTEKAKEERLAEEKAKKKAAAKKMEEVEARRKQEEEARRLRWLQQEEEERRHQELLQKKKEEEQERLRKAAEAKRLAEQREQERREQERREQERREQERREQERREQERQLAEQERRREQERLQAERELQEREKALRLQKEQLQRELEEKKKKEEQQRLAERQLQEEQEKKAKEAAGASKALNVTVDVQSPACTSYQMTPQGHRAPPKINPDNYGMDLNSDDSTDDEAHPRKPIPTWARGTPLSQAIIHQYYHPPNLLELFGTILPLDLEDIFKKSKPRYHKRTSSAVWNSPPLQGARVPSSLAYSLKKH
Chain of Epidermal growth factor receptor (Homo sapiens, UniProt P00533) (P00533 whole entry): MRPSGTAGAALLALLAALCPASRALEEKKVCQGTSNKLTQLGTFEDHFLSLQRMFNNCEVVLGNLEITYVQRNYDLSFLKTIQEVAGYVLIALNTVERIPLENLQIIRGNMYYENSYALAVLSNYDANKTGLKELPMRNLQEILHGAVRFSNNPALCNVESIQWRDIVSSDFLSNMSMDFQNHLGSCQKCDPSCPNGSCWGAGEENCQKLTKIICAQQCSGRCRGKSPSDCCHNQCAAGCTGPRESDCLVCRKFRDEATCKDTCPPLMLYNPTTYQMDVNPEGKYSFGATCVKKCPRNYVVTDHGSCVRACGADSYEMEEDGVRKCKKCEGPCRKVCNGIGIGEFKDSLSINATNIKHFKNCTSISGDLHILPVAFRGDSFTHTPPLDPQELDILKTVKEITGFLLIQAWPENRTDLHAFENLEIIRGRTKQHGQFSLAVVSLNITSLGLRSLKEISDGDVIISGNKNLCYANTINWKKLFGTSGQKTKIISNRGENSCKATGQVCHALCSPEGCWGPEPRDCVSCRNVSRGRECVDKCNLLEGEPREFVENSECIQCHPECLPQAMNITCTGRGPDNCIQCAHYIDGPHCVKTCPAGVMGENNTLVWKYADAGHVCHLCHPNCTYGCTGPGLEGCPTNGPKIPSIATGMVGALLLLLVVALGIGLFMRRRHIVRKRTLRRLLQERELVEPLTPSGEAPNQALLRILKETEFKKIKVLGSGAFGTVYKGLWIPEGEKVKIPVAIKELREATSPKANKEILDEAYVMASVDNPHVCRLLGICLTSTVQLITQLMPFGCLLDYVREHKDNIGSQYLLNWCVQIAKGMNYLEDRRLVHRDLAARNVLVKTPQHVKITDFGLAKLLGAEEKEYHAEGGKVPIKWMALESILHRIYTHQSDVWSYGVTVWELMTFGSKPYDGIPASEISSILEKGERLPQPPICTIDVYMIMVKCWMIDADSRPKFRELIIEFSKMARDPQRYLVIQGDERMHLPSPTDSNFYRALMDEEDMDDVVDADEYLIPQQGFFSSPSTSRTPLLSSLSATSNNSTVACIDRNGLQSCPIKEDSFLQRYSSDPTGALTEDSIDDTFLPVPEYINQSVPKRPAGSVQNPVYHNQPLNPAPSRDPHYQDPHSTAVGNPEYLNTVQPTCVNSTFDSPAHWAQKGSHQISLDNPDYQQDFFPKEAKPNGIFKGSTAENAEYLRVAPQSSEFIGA

For `COc1cc2c(Nc3ccc(NC(=O)c4ccccc4)cc3)ncnc2cc1OCCCN1CCOCC1`, the Kd (usually the equilibrium constant for the complex coming apart) in experiment [1] amounted to 220 nM; in experiment [2], 880 nM.
Take `Brc1cccc(Nc2ncnc3[nH]ccc23)c1`: the IC50 (commonly the concentration that gives 50% inhibition) in experiment [3] came to 20400 nM; in experiment [4], 3 nM; in experiment [5], 3 nM; in experiment [6], 3800 nM; in [7], 2770 nM.
For the molecule `O=C(Nc1ccccc1)c1ccc(Nc2ncnc3[nH]ccc23)cc1`, the IC50 was found to be 14700 nM in experiment [8], 50 nM in experiment [6] and 800 nM in experiment [7].
On to `Cn1nccc1-c1cc2c(Nc3ccc(OCc4ccccc4)cc3)ncnc2[nH]1`, for which the IC50 in experiment [3] was 2920 nM; in experiment [4], 69 nM; in [5] it was 70 nM; in experiment [6], 1100 nM; in [7], 4000 nM; in [10], above 50000 nM. The results for the Kd in [2] and in experiment [9] were 210 nM and above 30000 nM, respectively.
On to `COc1cccc2c1C(=O)c1c(O)c3c(c(O)c1C2=O)C[C@@](O)(C(=O)CO)C[C@@H]3O[C@H]1C[C@H](N)[C@H](O)[C@H](C)O1` [DOXORUBICIN], for which the IC50 in experiment [3] was 59 nM.
